# According to ChEMBL document CHEMBL1201862, “PubChem BioAssay data set” (2004):
#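 Assay format: 96-well plates, 48-hour exposure. Here, GI50 denotes the concentration required for 50% inhibition of growth.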 Activity calls are given as the source filed them. Rule as the data show it: active = GI50 up to about 1.1 µM and inactive = higher.
# Legend:
# Assay in all cases: NCI tumour cell line growth inhibition, 48 h
# 786-0 = system: 786-0
# RXF 631 = system: RXF 631
# MDA-N = system: MDA-N
# MDA-MB-435 = system: MDA-MB-435
# BT-549 = system: BT-549
# Hs-578T = system: Hs-578T
# DU-145 = system: DU-145
# PC-3 = system: PC-3
# MDA-MB-231 = system: MDA-MB-231
SMILES,GI50 (786-0),GI50 (RXF 631),GI50 (MDA-N),GI50 (MDA-MB-435),GI50 (BT-549),GI50 (Hs-578T),GI50 (DU-145),GI50 (PC-3),GI50 (MDA-MB-231)
CCOC(=O)C1=C(Nc2ccccc2)SCC1=O,> 100 µM (inactive),> 100 µM (inactive),,,,,,,
COC(Cc1cc(C(O)(c2ccc(C(C)(C)C)cc2)c2cc(CC(OC)(c3cc(C(OC)(c4ccc(C(C)(C)C)cc4)c4ccc(C(C)(C)C)cc4)c(C)cc3C)c3cc(C(OC)(c4ccc(C(C)(C)C)cc4)c4ccc(C(C)(C)C)cc4)c(C)cc3C)c(C)cc2C)c(C)cc1C)(c1cc(C(OC)(c2ccc(C(C)(C)C)cc2)c2ccc(C(C)(C)C)cc2)c(C)cc1C)c1cc(C(OC)(c2ccc(C(C)(C)C)cc2)c2ccc(C(C)(C)C)cc2)c(C)cc1C,,,> 75 µM (inactive),> 75 µM (inactive),> 75 µM (inactive),> 75 µM (inactive),> 75 µM (inactive),> 75 µM (inactive),> 75 µM (inactive)
CC(=O)/N=C1\N/C(=C\c2ccc(Cl)cc2)C(=O)N1/C=C1\C(=O)Oc2ccccc2C1=O,> 100 µM (inactive),,> 100 µM (inactive),51.2 µM (inactive),,1.4 µM (inactive),> 100 µM (inactive),> 100 µM (inactive),> 100 µM (inactive)
N#CC(C(=O)CCC(=O)Nc1cccc(C(F)(F)F)c1)c1ccccc1 (centres undefined),> 100 µM (inactive),,,,,,,,
Cc1cc(C)c(S(=O)(=O)N(CCCCCN)OCCCN)c(C)c1,,,16.7 µM (inactive),18.2 µM (inactive),17.4 µM (inactive),22 µM (inactive),16.7 µM (inactive),14.7 µM (inactive),31.7 µM (inactive)
OC(c1ccc(-c2ccccc2)cc1)(c1ccc(-c2ccccc2)cc1)c1ccc(-c2ccccc2)cc1,> 100 µM (inactive),,> 100 µM (inactive),> 100 µM (inactive),> 100 µM (inactive),> 100 µM (inactive),> 100 µM (inactive),> 100 µM (inactive),53.7 µM (inactive)
CC(=O)CC(=O)/C=C/c1cccs1,99.5 µM (inactive),,,,,,,,
COc1cc(CNc2nc3cc(C(F)(F)F)ccc3nc2-c2ccccc2)cc(OC)c1OC,30 µM (inactive),,30.6 µM (inactive),28.5 µM (inactive),,37.4 µM (inactive),89.7 µM (inactive),,20.6 µM (inactive)
O=C(O)/C=C/c1nc2ccccc2c(=O)o1,> 100 µM (inactive),,,,,,,,
Cc1ccc([N+](=O)[O-])cc1S(=O)(=O)Nc1ccc(C2=NNC(c3ccccc3O)C2)cc1 (centres undefined),,,28.6 µM (inactive),22.1 µM (inactive),19.7 µM (inactive),43.7 µM (inactive),38.7 µM (inactive),29.4 µM (inactive),26.7 µM (inactive)
Cc1ccc(NP(=O)(Oc2ccccc2)N(CCCl)CCCl)cc1 (centres undefined),,10 µM (inactive),,,,,,,
O=c1[nH]c(=O)n(C2OC3COC2C3O)cc1F (centres undefined),> 100 µM (inactive),> 100 µM (inactive),,,,,,,
O=c1c2c(nc3[nH]ccn13)CCCC2,,,,> 10 µM (inactive),,1.23 µM (inactive),> 10 µM (inactive),> 10 µM (inactive),> 10 µM (inactive)
O=C1Nc2cc([N+](=O)[O-])c(Br)cc2C1=O,18.5 µM (inactive),18.5 µM (inactive),,,,,,,
CC1(C(=O)O)CCC(C(=O)O)C(C)(C)O1 (centres undefined),,,> 100 µM (inactive),> 100 µM (inactive),> 100 µM (inactive),> 100 µM (inactive),> 100 µM (inactive),> 100 µM (inactive),
CN(C)c1ccc2nc(CC(O)(C(F)(F)F)C(F)(F)F)ccc2c1,> 10 µM (inactive),,> 10 µM (inactive),> 10 µM (inactive),> 10 µM (inactive),> 10 µM (inactive),> 10 µM (inactive),> 10 µM (inactive),> 10 µM (inactive)
COC1=C2CC(C)CC(OC)C(OC(=O)CN)[C@H](C)/C=C(\C)C(OC(N)=O)C(OC)/C=C\C=C(/C)C(=O)NC(=CC1=O)C2=O (some centres undefined),0.429 µM (active),,0.443 µM (active),0.373 µM (active),1.09 µM (active),3.79 µM (inactive),1.45 µM (inactive),1.1 µM (active),0.42 µM (active)
